Source: patent US20250019370A1, “L-LYSINE SALT OF 4-CHLORO-5-[4-(2,6-DICHLOROPHENYL)SULFONYLPIPERAZIN-1-YL]-1-BENZOFURAN-2-CARBOXYLIC ACID AND VARIOUS FORMS THEREOF” (ENYO PHARMA, priority 2023, published 2025)

Key:
[1] = Solubility kinetics in pH 4.5 acetate buffer; type: physicochemical; conditions: for Soluble fraction: 37 ° C., listed as EYP001 L-Lysine salt (Form I)
Experimental: The solubility kinetics of the salt forms as well as the native EYP001 free acid form were determined in FaSSIF and FeSSIF media, and in a pH 4.5 acetate buffer as detailed below:
The samples were prepared by adding an excess of each tested bulk (salt or native EYP001) to a given volume of test medium. The suspension was stirred by orbital stirring over 1 hour (in both pH 4.5 acetate buffer and FeSSIF medium) or 24 hours (inFaSSIF medium) at 37° C., protected from light.
In pH 4.5 acetate buffer, the soluble concentration was assessed after 0.5 hour and 1 hour of stirring.
At each time point, the “supernatant” was isolated and diluted in a solvent mixture allowing its injection into the chromatographic system. The concentration in solution in the test medium was determined by HPLC with external standardization.

[2] = Pharmacokinetic study Experiment #2, oral administration in rats; type: in vivo, rat; conditions: 50 mg EqEYP001/Kg
Experimental: In a second study (Experiment #2), EYP001 and EYP001 L-lysine salt Form I in aqueous formulations (0.5% CMC, 0.25% Tween 80, water) were orally administrated at a dose of 50 mg EqEYP001/Kg in 8 male rats for each compound. Blood samples were taken at 0.25 h, 0.5 h, 1 h, 2 h, 4 h, 6 h, 8 h, 12 h, and 24 h after oral administration.

[3] = Polymorph screening (solids analysed by XRPD); type: physicochemical; conditions: form I as starting material
Experimental: A polymorph screening was performed on EYP001 L-lysine salt crystalline form I (form I as starting material unless otherwise specified).
A number of unique materials with different patterns were produced, including crystalline forms I-IV and an amorphous material. All solids from the screening experiments were analysed by XRPD analysis and the resulting patterns compared to that of the reference. The observed solids and their ways of obtention are described in Table 16.

[4] = male rats, versus EYP001 free acid
[5] = Entry 1: no solvent, 23% RH stress
[6] = Entry 2: no solvent, 40° C./75% RH stress
[7] = Entry 3: no solvent, 59% RH stress
[8] = Entry 7: no solvent, melt quench
[9] = Entry 8: no solvent, compression
[10] = Entry 13: DMSO, slurry (20° C.)
[11] = Entry 14: EtOAc, slurry (5° C.)
[12] = Entry 15: water, slurry (5° C.)
[13] = Entry 16: THF, flash evaporation
[14] = Entry 17: THF, flash evaporation
[15] = Entry 18: acetone, flash evaporation
[16] = Entry 19: DMSO, flash evaporation
[17] = Entry 20: EtOAc, flash evaporation
[18] = Entry 21: IPA, flash evaporation
[19] = Entry 22: water, flash evaporation
[20] = Entry 23: MeOH, flash evaporation
[21] = Entry 24: EtOH, flash evaporation
[22] = Entry 25: heptane, flash evaporation
[23] = Entry 26: EtOH, flash evaporation
[24] = Entry 27: THF/water (82:18% v/v), flash evaporation
[25] = Entry 29: acetone, slurry (5° C.)
[26] = Entry 30: DMSO, slurry (20° C.)
[27] = Entry 31: EtOAc, slurry (5° C.)
[28] = Entry 33: water, slurry (5° C.)
[29] = Entry 36: heptane, slurry (5° C.)
[30] = Entry 37: THF/water (82:18% v/v), slurry (5° C.)
[31] = Entry 39: acetone, slurry (60° C.)
[32] = Entry 40: DMSO, slurry (60° C.)
[33] = Entry 41: EtOAc, slurry (60° C.)
[34] = Entry 43: water, slurry (60° C.)
[35] = Entry 44: MeOH, slurry (60° C.)
[36] = Entry 45: EtOH, slurry (60° C.)
[37] = Entry 46: heptane, slurry (60° C.)
[38] = Entry 47: EtOH /water (96:4% v/v), slurry (60° C.)
[39] = Entry 49: acetone, vapour stress
[40] = Entry 56: heptane, vapour stress
[41] = Entry 58: THF/water (82:18% v/v), anti-solvent THF, vapour diffusion
[42] = Entry 59: THF/water (82:18% v/v), anti-solvent IPA, vapour diffusion
[43] = Entry 60: THF/water (82:18% v/v), anti-solvent EtOAc, vapour diffusion
[44] = Entry 61: acetone/water (50:50% v/v), slow cool
[45] = Entry 62: DMSO/water (80:20% v/v), slow cool
[46] = Entry 64: IPA/water (80:20% v/v), slow cool
[47] = Entry 65: MEOH/water (84:16% v/v), slow cool
[48] = Entry 66: THF/water (82:18% v/v), slow cool
[49] = Entry 67: THF/water (82:18% v/v), crash precipitation
[50] = Entry 69: DMSO, anti-solvent EtOAc, crash precipitation
[51] = Entry 70: THF/water (82:18% v/v), temperature cycle
[52] = Entry 71: DMSO/water (80:20% v/v), temperature cycle
[53] = Entry 72: MeOH/water (84:16% v/v), temperature cycle

NCCCC[C@H](N)C(=O)O.O=C(O)c1cc2c(Cl)c(N3CCN(S(=O)(=O)c4c(Cl)cccc4Cl)CC3)ccc2o1 [EYP001 L-lysine salt Form I, L-lysine salt of 4-chloro-5-[4-(2,6-dichlorophenyl)sulfonylpiperazin-1-yl]-1-benzofuran-2-carboxylic acid]
Amorphous: XRPD [3, 8] | XRPD ([3]; Entry 10: no solvent, milling) | XRPD ([3]; Entry 12: THF, slurry (50° C.)) | XRPD [3, 13] | XRPD [3, 15] | XRPD [3, 17] | XRPD [3, 18] | XRPD [3, 26] | XRPD [3, 29] | XRPD [3, 31] | XRPD [3, 37] | XRPD ([3]; Entry 48: THF, vapour stress) | XRPD [3, 39] | XRPD ([3]; Entry 50: DMSO, vapour stress) | XRPD [3, 40] | XRPD [3, 50]
Form IV: XRPD ([3]; Entry 34: MeOH, slurry (5° C.))
solution: Results ([3]; Entry 57: THF/water (82:18% v/v), vapour stress)
much higher solubility: solubility compared to EYP001 free acid, Benethamine, Zinc, Benzathine and Ethylene diamine salts ([1]; 37° C.)
42500 ng·h/mL: Mean AUC0-24 ([2]; male rats, aqueous formulation)
Form I: XRPD [3, 5] | XRPD [3, 6] | XRPD [3, 7] | XRPD [3, 9] | XRPD [3, 10] | XRPD [3, 11] | XRPD [3, 16] | XRPD [3, 19] | XRPD [3, 20] | XRPD [3, 21] | XRPD [3, 23] | XRPD [3, 24] | XRPD ([3]; Entry 28: THF, slurry (5° C.)) | XRPD [3, 25] | XRPD [3, 27] | XRPD ([3]; Entry 32: IPA, slurry (5° C.)) | XRPD ([3]; Entry 35: EtOH, slurry (5° C.)) | XRPD [3, 30] | XRPD ([3]; Entry 38: THF, slurry (60° C.)) | XRPD [3, 32] | XRPD [3, 33] | XRPD ([3]; Entry 42: IPA, slurry (60° C.)) | XRPD [3, 35] | XRPD [3, 36] | XRPD [3, 38] | XRPD ([3]; Entry 51: EtOAc, vapour stress) | XRPD ([3]; Entry 52: IPA, vapour stress) | XRPD ([3]; Entry 53: water, vapour stress) | XRPD ([3]; Entry 54: MeOH, vapour stress) | XRPD ([3]; Entry 55: EtOH, vapour stress) | XRPD [3, 41] | XRPD [3, 42] | XRPD [3, 43] | XRPD [3, 44] | XRPD [3, 45] | XRPD [3, 46] | XRPD [3, 47] | XRPD [3, 48] | XRPD [3, 49] | XRPD [3, 51] | XRPD [3, 52] | XRPD [3, 53]
Form II: XRPD [3, 14] | XRPD [3, 22]
7870 ng/mL: Mean Cmax ([2]; male rats, aqueous formulation)
+47%: % increase/EYP001 (AUC0-24) [2, 4]
0.010 mg/mL of EYP001: Soluble fraction ([1]; after 0.5 h)
superiority: exposure and C max compared to EYP001 free acid ([2]; rat)
Form III: XRPD [3, 12] | XRPD [3, 28] | XRPD [3, 34] | XRPD ([3]; Entry 63: water, slow cool)
solid: Results [3, 5] | Results [3, 6] | Results [3, 7] | Results [3, 8] | Results [3, 9] | Results ([3]; Entry 10: no solvent, milling) | Results ([3]; Entry 12: THF, slurry (50° C.)) | Results [3, 10] | Results [3, 11] | Results [3, 12] | Results [3, 14] | Results [3, 15] | Results [3, 16] | Results [3, 17] | Results [3, 18] | Results [3, 19] | Results [3, 20] | Results [3, 21] | Results [3, 22] | Results [3, 23] | Results [3, 24] | Results ([3]; Entry 28: THF, slurry (5° C.)) | Results [3, 25] | Results [3, 26] | Results [3, 27] | Results ([3]; Entry 32: IPA, slurry (5° C.)) | Results [3, 28] | Results ([3]; Entry 34: MeOH, slurry (5° C.)) | Results ([3]; Entry 35: EtOH, slurry (5° C.)) | Results [3, 29] | Results [3, 30] | Results ([3]; Entry 38: THF, slurry (60° C.)) | Results [3, 31] | Results [3, 32] | Results [3, 33] | Results ([3]; Entry 42: IPA, slurry (60° C.)) | Results [3, 34] | Results [3, 35] | Results [3, 36] | Results [3, 37] | Results [3, 38] | Results ([3]; Entry 48: THF, vapour stress) | Results [3, 39] | Results ([3]; Entry 50: DMSO, vapour stress) | Results ([3]; Entry 51: EtOAc, vapour stress) | Results ([3]; Entry 52: IPA, vapour stress) | Results ([3]; Entry 53: water, vapour stress) | Results ([3]; Entry 54: MeOH, vapour stress) | Results ([3]; Entry 55: EtOH, vapour stress) | Results [3, 40] | Results [3, 41] | Results [3, 42] | Results [3, 43] | Results [3, 44] | Results [3, 45] | Results ([3]; Entry 63: water, slow cool) | Results [3, 46] | Results [3, 47] | Results [3, 48] | Results [3, 49] | Results [3, 50] | Results [3, 51] | Results [3, 52] | Results [3, 53]
no solid: Results [3, 13] | Results ([3]; Entry 68: DMSO, anti-solvent THF, crash precipitation)
+41%: % increase/EYP001 (Cmax) [2, 4]
0.006 mg/mL of EYP001: Soluble fraction ([1]; after 1 h)
